One series deals with T1, 5-lipoxygenase (Cavia porcellus, UniProt A0A286X958).
T1 construct: 5-lipoxygenase was prepared with polymorphonuclear leukocyte obtained from peritoneal cavity; endogenous in cells; host or cells: guinea pig peritoneal polymorphonuclear leukocytes (casein-elicited)
T1 sequence (A0A286X958 1-674): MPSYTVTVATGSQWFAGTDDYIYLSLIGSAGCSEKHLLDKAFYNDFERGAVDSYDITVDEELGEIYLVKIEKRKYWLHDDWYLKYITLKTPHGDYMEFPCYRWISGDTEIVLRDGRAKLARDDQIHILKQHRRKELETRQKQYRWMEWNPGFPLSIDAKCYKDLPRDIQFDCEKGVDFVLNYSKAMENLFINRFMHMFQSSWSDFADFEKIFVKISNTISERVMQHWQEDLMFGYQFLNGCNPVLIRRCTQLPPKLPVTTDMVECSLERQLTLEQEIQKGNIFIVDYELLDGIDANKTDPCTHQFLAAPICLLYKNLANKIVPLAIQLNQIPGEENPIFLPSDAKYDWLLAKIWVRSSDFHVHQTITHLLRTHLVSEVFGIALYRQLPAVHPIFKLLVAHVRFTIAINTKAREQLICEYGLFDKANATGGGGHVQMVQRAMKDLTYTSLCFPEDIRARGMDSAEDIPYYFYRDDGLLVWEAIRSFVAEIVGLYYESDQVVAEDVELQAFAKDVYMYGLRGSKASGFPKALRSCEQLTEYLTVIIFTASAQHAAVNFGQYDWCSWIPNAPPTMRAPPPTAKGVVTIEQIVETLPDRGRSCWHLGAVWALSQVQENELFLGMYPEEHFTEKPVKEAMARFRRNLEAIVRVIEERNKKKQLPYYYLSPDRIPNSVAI
Kind of series: 5-lipoxygenase inhibiting activity in guinea pig. The format is biochemical. As to conditions: read-out: Inhibition rate against 5-lipoxygenase activity. How it is done:
The test was carried out according to the method of Ochi [cf. J. Biol. Chem., 258, 5754-5758 (1983)]. Two % casein solution in saline was injected intraperitoneally into guinea pigs in an amount of 1/10 of body weight. After 16 hours, 5-lipoxygenase was prepared with polymorphonuclear leukocyte obtained from peritoneal cavity. Test compound and 5-lipoxygenase were pre-incubated at 30° C. for 10 minutes, CaCl2 (calcium chloride) and ^14 C-arachidonic acid were added thereto, and the resulting mixture was incubated for 20 minutes. A mixture of ethyl acetate/methanol/0.2M citric acid=30/4/1 (by volume) was added thereto to stop the reaction. After centrifugation, the organic solvent layer was spotted on a plate for thin layer chromatography and developed. Effect of the test compound was determined from the amount of ^14 C-5-hydroxyeicosatetraenoic acid (hereinafter referred to as "5-HETE") formed from ^14 C-arachidonic acid. Radioactivity of 5-HETE position was measured with a liquid scintillation counter.
Inhibition rate against 5-lipoxygenase activity was calculated according to the following equation.
Inhibition rate against 5-lipoxygenase activity [formula] A: Value of radioactivity in the control group B: Value of radioactivity in the test compound group
Each test compound was used in a concentration of 10 μM.

The subject of series [1] is PCA (homologous passive cutaneous anaphylaxis) in rat. Put plainly: Inhibitory activity against PCA in rat. As to conditions: Rattus norvegicus; 5 mg/kg oral, 1 hour before antigen challenge; read-out: Inhibition rate against PCA. The format is in vivo, rat (male Slc: Wistar). As to the method:
An anti-dinitrophenylated-ovalbumin (hereinafter referred to as "anti-DNP-OVA") rat antiserum having 800 of PCA titer in homologous passive cutaneous anaphylaxis reaction in rats for 48 hours, was diluted 200 times with physiological saline, and diluted antiserum was injected intradermally into back of groups of 5 male Slc: Wistar rats weighing 130-150 g in a volume of 50 μl/site to be passively sensitized. After 48 hours, 0.6 ml of 1% (w/v) Evans blue solution containing 1.5 mg of antigen DNP-OVA was administered intravenously into the tail. Thirty minutes later, the rats were bled to death and skin of the rats was removed. According to the method of Katayama et al [Microbiol. […] The test compound was suspended in 0.5% (w/v) aqueous solution of carboxymethylcellulose (hereinafter referred to as "CMC"), the suspension was administered orally in a ratio of 5 mg/kg 1 hour before challenging an antigen.
Inhibition rate against PCA was calculated according to the following equation. [formula] M: Amount of leaked pigment in antibody-sensitized site under administration of CMC without the test compound
S: Amount of leaked pigment in antibody-sensitized site under administration of the test compound in CMC
B: Amount of leaked pigment in antibody-nonsensitized site

A short description of the next series: Acute toxicity in mouse. The class given is in vivo. As to conditions: 2 weeks observation. As to the method:
The test was carried out with the compounds obtained in Examples 5 and 9. Groups of 5 male ddy mice weighing 26 to 28 g were employed. The test compounds were suspended in a 0.5% CMC aqueous solution and the resulting suspension was administered orally in an amount of 500 for the compound obtained in Example 9, 1000 or 2000 mg/kg body weight. The survivors were kept under observation daily for 2 weeks. From the results shown in Table 6, the LD50 of the compounds obtained in Example 5 and 9 were estimated to be more than 2000 mg/kg. The other compounds of the present invention also had the same toxicity as the above compounds.

Series [2] concerns histamine release from rat mast cell. Put plainly: Inhibitory activity against histamine release from rat mast cell. The note with it: 10 μg/ml, read-out: Inhibitory rate against histamine release. The class given is cell-based. As to the method:
An anti-dinitrophenylated-ovalbumin (anti DNP-OVA) rat antiserum having 800 of PCA titer in homologous passive cutaneous anaphylaxis reaction in rats for 48 hours was diluted double with physiological saline, and 1 ml of diluted antiserum was injected intraperitoneally into rats to be passively sensitized. On the next day, peritoneal exudation cell (hereinafter referred to as "PEC") was collected. The collected PEC was washed with a medium containing 0.1% BSA, and 1.5×10^5 of the PEC were added to each test tube. AFter incubation at 37° C. for 10 minutes, 50 μl of test compound solution in a same medium was added thereto. After 30 seconds, 50 μl of antigen solution (DVA-OVA 100 μg/ml) was further added thereto to give the total amount of 500 μl of the reaction mixture, and histamine release reaction was induced. After 10 minutes, 1 ml of physiological saline with cooled Tris buffered solution containing 1 mM EDTA were added thereto to stop the reaction. After centrifugation, the amount of histamine in supernatant was determined by fluorescence method according to the method of Shore et al [cf. J. Pharmacol. Exp. Ther., 127, 182 (1959)]. Inhibition rate against histamine release was calculated according to the following equation.
Inhibition rate against histamine release [formula] M: Amount of histamine in supernatant under addition of antigen and non-addition of test compound
S: Amount of histamine in supernatant under addition of antigen and test compound
B: Amount of histamine in supernatant under non-addition of antigen and test compound.
The test compound was used in a concentration of 10 μg/ml.

Series [3] relates to smooth musculus trachealis. Kind of series: Relaxant activity of smooth musculus trachealis in guinea pig. Further details: species or system guinea pig (male Hartley). The note with it: Cavia porcellus; tracheal chain strips, 37° C.; read-out: Concentration for 50% relaxation. How it is done: Male Hartley guinea pigs weighing 350 to 550 g were bleed to death, and immediately the tracheae were extirpated. According to the method of Takagi et al [cf. Chem. Pharm. Bull., 8, 716 (1958)], tracheal chain strips was prepared, and the sample was suspended on Magnus apparatus under addition of load of 0.5 g. The test was carried out at 37° C. of liquid temperature. After position of tonus was examined with histamine (10^-6 g/ml) and isoproterenol (10^-7 g/ml), the test compound dissolved in a mixture of dimethyl sulfoxide and physiological saline was added thereto, and the test compound was investigated with respect to the effect on smooth musculus trachealis. Theophylline was used as a positive comparative drug. The relaxation and the contraction of smooth musculus trachealis were recorded on servocorder (SR 6342: commercially available from Watanabe Instruments Corp.) by connecting Isotonic Transducer (TD-1125: commercially available from Nihon Kohden Kogyo Co., Ltd.) to a balancing box.

For series [4], the system named is carrageenin edema in a foot-pad of rat. Put plainly: Effect on carrageenin edema in a foot-pad of rat. The class given is in vivo, rat (male Wister). The note with it: 4 hours after carrageenin; for Inhibition rate against swelling: vs 0.5% CMC group. How it is done: The test was carried out according to the modified method on a method of Winter et al [Proc. Soc. Exp. Biol Med., 111, 544-547 (1962)]. Five male Wister rats weighing 148 to 162 g which were subjected to fasting for 24 hours were used as one group.
The test compound was suspended in 0.5% aqueous solution of CMC, and the suspension was administered orally in a amount of 50 mg/kg. After 60 minutes, 0.1 ml of 1% carrageenin solution in physiological saline was injected subcutaneously into the foot-pad of the left hind foot. Four hours after the injection of carrageenin, the volume of the foot-pad was measured by the apparatus for measurement of foot-pad volume in rat (commercially available from Ugobasile).
Swelling volume was calculated from the difference between a volume of foot-pad before inflaming the foot-pad, i.e. normal volume and that after inflaming it. Effect of a test compound was expressed as inhibition rate against swelling by calculating percentage in comparison with the 0.5% CMC administration group.
Indomethacin (commercially available from Merck Co.) was used as a positive comparative drug.

Setting [5] is: 5 mg/kg p.o. (positive comparative drug).

Values after ≈ are worked out from the molar mass of the structure shown. Values joined by “and” are separate entries in the source; they are usually repeats but may differ in a detail not shown here. Identical values can stand only once.

In the case of `CC(C)c1cccc2c(-c3nnn[nH]3)c(=O)n(Cc3ccccc3)c-2c1` [Example 5, 7-Iso-propyl-1-benzyl-3-(5-tetrazolyl)-1-azaazulane-2-one], the inhibition at 10 µM at 5-lipoxygenase worked out at 1.5%. The inhibition in vivo at 5 mg/kg in series [1] amounted to 94.8 ± 5.1%. Also, the Mortality in the series “Acute toxicity in mouse” (1000 mg/kg p.o.) and in the series “Acute toxicity in mouse” (2000 mg/kg p.o.) was 0/5 in each case. Further, the LD50 at 336 h in “Acute toxicity in mouse” (mouse, in vivo, oral) is more than 2000 mg/kg. In addition, the inhibition at 10 µg/mL in series [2] was 81.1%. Moreover, in series [3], the EC50 turned out to be 1.2 µg/mL (≈ 3.47 µM).

As to `CC(C)c1cccc2c(-c3nnn[nH]3)c(=O)n(Cc3ccc(F)cc3)c-2c1` [Example 10, 1-(4-Fluorobenzyl)-7-iso-propyl-3-(5-tetrazolyl)-1-azaazulane-2-one], the inhibition at 10 µM on 5-lipoxygenase stood at 41.8%. Besides, in series [4] (50 mg/kg p.o.), the “Swelling volume 4 hours after inflaming, mean ± standard error” value is 0.58 mL and 0.58 ± 0.036 mL; the “Inhibition rate against swelling” value was 35.6%. In addition, the inhibition at 10 µg/mL in series [2] was determined as 99.8%. In series [3], the EC50 is 3.4 µg/mL (≈ 9.36 µM).

As for `CC(C)c1cccc2n(CCCc3ccccc3)c(=O)c(-c3nn[nH]n3)c-2c1` [Example 30], the inhibition at 10 µM on 5-lipoxygenase was determined as 12.2%. For the same compound, in series [1], the inhibition in vivo at 5 mg/kg came out at 10.8 ± 11.1%. The inhibition at 10 µg/mL in series [2] turned out to be 99.5%. Moreover, the EC50 in series [3] is 7.8 µg/mL (≈ 20.9 µM).

In the case of `COc1ccc2c(c1)c(CC(=O)O)c(C)n2C(=O)c1ccc(Cl)cc1` [Indomethacin, reference compound], in series [4] (setting [5]), the “Swelling volume 4 hours after inflaming, mean ± standard error” value was 0.47 ± 0.056 mL and the “Inhibition rate against swelling” value was determined as 47.8%.

Source of the values: patent USRE34918E, “Azaazulene compounds which are useful as antiallergic and antiinflammatory agents” (Kaken Pharmaceutical Co., Ltd., priority 1988, dated 1995).
